Results as given in patent US20070059319A1, “Methods of screening for immuno-adjuvants and vaccines comprising anti-microtubule immuno-adjuvants” (Caliper Life Sciences, Inc., priority 2005, published 2007).

Test system: human monocytes (THP-1 cell line)
Experiment: multiplex functional cell-based HTS assay (5-plex): expression of co-stimulatory molecules and cytokines by THP-1 monocytes
Parameters: IL-8 / RANTES / TNFα: unit not given here
Details: THP-1 cells incubated overnight with 10^-5M test compound; for IL-8 / RANTES / TNFα: concentration in cell culture supernatant, Luminex, mean of two wells; for CD54 / CD80: flow cytometry, specific staining (MFI minus isotype control MFI)
Procedure: Test compounds/candidate agents were diluted in 100% DMSO at a concentration of 10^−2M and stored in 96 well “matrix” plates at −80° C. These compound stocks were employed as a pool of mother plates. Compounds to be assayed were diluted 100 times in sterile PBS using a liquid handling robot “Evolution P3” (PerkinElmer) to a concentration of 10^−4M, and stored at −20° C. until they were used for the assay. In total, 20,000 candidate agents were tested.
10^5 THP-1 cells were incubated overnight with 10^−5M of test compound (20 μl of 10^−4M compound stock solution was added to 180 μl of the cells suspension). Incubations were carried out in U bottom 96 well tissue culture plates. Each compound was tested in duplicate. Collection of the cell culture supernatants and cell surface receptor staining were carried out using the “Biomek 2000” liquid handling robot (Becton Coulter).
Expression of cell surface receptors was analyzed by flow cytometry using the following antibodies: PE-conjugated anti-human CD80 and APC conjugated anti-human CD54 (ICAM-1) and matching labeled isotype controls, all from BD Pharmingen. Cells in the first well of each duplicate were stained with isotype controls (IC). In the second well, cells were stained with CD80 and CD54 antibodies. Stained cells were analyzed on a flow cytometer (FACSArray cytometer (BD Pharmingen)). The mean fluorescence intensity (MFI) for IC and CD80/CD54 antibodies stained cells were determined using “FlowJo” software (Tree Star, Inc.). The IC MFIs were subtracted from CD80/CD54 MFIs and results were recorded as specific staining and used for the following data analysis.
The concentrations of IL-8, RANTES and TNFα in cell culture supernatants were determined for each well of the duplicates using the “Fluorokine MultiAnalyte Profiling” kits (R&D Systems). Samples were analyzed on the Luminex 100IS system and data analysis was performed using Luminex 2.3IS software (both from Luminex corporation). The mean value of two wells was recorded and used for the following data analysis.
To identify agents that stimulate the innate immune system, a multiplex functional cell-based assay was used. The assay used human monocytes (THP-1 cell line) as target cells and expression of co-stimulatory molecules (CD54 and CD80) and immune-activating cytokines (IL-8, RANTES and TNFα) as assay readouts. These molecules play major role in the innate immune response and are required for effective activation of the adaptive immune system.

Compound	IL-8	RANTES	TNFα	CD54	CD80
CC[C@]1(O)C[C@H]2CN(CCc3c([nH]c4ccccc34)[C@@](C(=O)OC)(c3cc4c(cc3OC)N(C=O)[C@H]3[C@@](O)(C(=O)OC)[C@H](OC(C)=O)[C@]5(CC)C=CCN6CC[C@]43[C@@H]65)C2)C1 [Vincristine]	8334.51	5232.60	88.30	814.96	3.90
COc1cc2c(c(OC)c1OC)-c1ccc(OC)c(=O)cc1[C@@H](NC(C)=O)CC2 [Colchicine]	7499.42	4383.62	66.37	554.50	3.69
CN[C@H]1CCc2cc(OC)c(OC)c(OC)c2-c2ccc(OC)c(=O)cc21 [Demecolcine]	2533.58	740.62	95.20	600.87	4.91
bacterial lipopolisaccharide [LPS]	13562.99	3217.60	866.78	3662.56	64.12
CC[C@]1(O)C[C@@H]2CN(CCc3c([nH]c4ccccc34)[C@@](C(=O)OC)(c3cc4c(cc3OC)N(C)[C@H]3[C@@](O)(C(=O)OC)[C@H](OC(C)=O)[C@]5(CC)C=CCN6CC[C@]43[C@@H]65)C2)C1 [Vinblastine]	6543.63	4568.01	78.47	665.18	3.89
